# Measurements as given in ChEMBL document CHEMBL3045690, “Ligand-based drug design studies using predictive pharmacophore model generation on 4H-1,2,4-triazoles as AT1 receptor antagonists” (Med Chem Res, 2012).
# Target: T1, Type-1 angiotensin II receptor (Oryctolagus cuniculus, UniProt P34976)
# T1 sequence (P34976 whole entry): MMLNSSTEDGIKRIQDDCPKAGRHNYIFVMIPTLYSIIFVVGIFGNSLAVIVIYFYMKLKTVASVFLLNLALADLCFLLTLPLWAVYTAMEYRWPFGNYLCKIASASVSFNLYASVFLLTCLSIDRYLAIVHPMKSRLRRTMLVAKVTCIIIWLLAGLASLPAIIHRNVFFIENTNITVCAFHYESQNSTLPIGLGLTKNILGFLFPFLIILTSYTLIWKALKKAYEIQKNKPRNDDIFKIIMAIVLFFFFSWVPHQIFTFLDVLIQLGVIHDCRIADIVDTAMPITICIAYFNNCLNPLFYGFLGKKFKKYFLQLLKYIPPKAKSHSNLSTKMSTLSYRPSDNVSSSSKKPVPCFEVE
# Experiment: Antagonist activity at AT1 receptor in Oryctolagus cuniculus (rabbit) aorta
row,Compound,IC50 [nM]
1,CCCCc1nnc([S+]([O-])Cc2ccc(Cl)cc2)n1Cc1ccc(NC(=O)c2ccccc2-c2nn[nH]n2)cc1 (stereo unspecified),11
2,CCCCc1nnc([S+]([O-])Cc2ccc(OC)cc2)n1Cc1ccc(NC(=O)c2ccccc2-c2nn[nH]n2)cc1 (stereo unspecified),50
3,CCCCc1nnc(C(=O)NCc2ccccc2)n1Cc1ccc(NC(=O)c2ccccc2-c2nnn[nH]2)cc1,57
4,CCCCc1nnc(C(=O)N(C)Cc2ccccc2)n1Cc1ccc(NC(=O)c2ccccc2-c2nnn[nH]2)cc1,89
5,CCCCc1nnc(C(=O)N(C)c2ccccc2)n1Cc1ccc(NC(=O)c2ccccc2-c2nnn[nH]2)cc1,350
6,CCCCc1nnc(SC(C)(C)C)n1Cc1ccc(NC(=O)c2ccccc2C(=O)O)cc1,890
7,CCCCc1nnc(SC)n1Cc1ccc(NC(=O)c2ccccc2-c2nnn[nH]2)cc1,310
8,CCCCc1nnc(SCC(C)C)n1Cc1ccc(NC(=O)c2ccccc2-c2nnn[nH]2)cc1,72
9,CCCCc1nnc(SCC2CCCCC2)n1Cc1ccc(NC(=O)c2ccccc2-c2nnn[nH]2)cc1,36
10,CCCCc1nnc(Sc2ccccc2)n1Cc1ccc(NC(=O)c2ccccc2-c2nnn[nH]2)cc1,100
11,CCCCc1nnc(SCc2ccccc2)n1Cc1ccc(NC(=O)c2ccccc2-c2nnn[nH]2)cc1,7.1
12,CCCCc1nnc(SCCc2ccccc2)n1Cc1ccc(NC(=O)c2ccccc2-c2nnn[nH]2)cc1,35
13,CCCCc1nnc(SCc2ccccc2C)n1Cc1ccc(NC(=O)c2ccccc2-c2nnn[nH]2)cc1,17
14,CCCCc1nnc(SCc2ccccc2Cl)n1Cc1ccc(NC(=O)c2ccccc2-c2nnn[nH]2)cc1,110
15,CCCc1nnc(SCc2ccc(Cl)cc2)n1Cc1ccc(NC(=O)c2ccccc2-c2nnn[nH]2)cc1,98
16,CCCCCc1nnc(SCc2ccc(Cl)cc2)n1Cc1ccc(NC(=O)c2ccccc2-c2nnn[nH]2)cc1,94
17,CCCCc1nnc(SCc2ccccc2[N+](=O)[O-])n1Cc1ccc(NC(=O)c2ccccc2-c2nnn[nH]2)cc1,130
18,CCCCc1nnc(SCc2ccc([N+](=O)[O-])cc2)n1Cc1ccc(NC(=O)c2ccccc2-c2nnn[nH]2)cc1,6.6

row,Compound,IC50 [nM]
1,CCCCc1nnc(SCc2cccc(OC)c2)n1Cc1ccc(NC(=O)c2ccccc2-c2nnn[nH]2)cc1,94
2,CCCCc1nnc(SCc2ccc(C(=O)OC)cc2)n1Cc1ccc(NC(=O)c2ccccc2-c2nnn[nH]2)cc1,120
3,CCCCc1nnc(SCc2ccc(C(=O)O)cc2)n1Cc1ccc(NC(=O)c2ccccc2-c2nnn[nH]2)cc1,24
4,CCCCc1nnc(SCc2ccccc2C(=O)OC)n1Cc1ccc(NC(=O)c2ccccc2-c2nnn[nH]2)cc1,90
5,CCCCc1nnc(SCc2ccccc2C(=O)O)n1Cc1ccc(NC(=O)c2ccccc2-c2nnn[nH]2)cc1,1.5
6,CCCCc1nnc(SCc2ccccc2CO)n1Cc1ccc(NC(=O)c2ccccc2-c2nnn[nH]2)cc1,36
7,CCCCc1nnc(SCc2ccccc2-c2nnn[nH]2)n1Cc1ccc(NC(=O)c2ccccc2-c2nnn[nH]2)cc1,1.4
8,CCCCc1nnc(S(C)(=O)=O)n1Cc1ccc(NC(=O)c2ccccc2-c2nnn[nH]2)cc1,400
9,CCCCc1nnc(S(=O)(=O)Cc2ccc(Cl)cc2)n1Cc1ccc(NC(=O)c2ccccc2-c2nnn[nH]2)cc1,48
10,CCCCc1nnc([S+]([O-])Cc2ccc([N+](=O)[O-])cc2)n1Cc1ccc(NC(=O)c2ccccc2-c2nnn[nH]2)cc1 (stereo unspecified),8.9
11,CCCCc1nnc([S+]([O-])Cc2ccccc2C(=O)O)n1Cc1ccc(NC(=O)c2ccccc2-c2nnn[nH]2)cc1 (stereo unspecified),10
12,CCCCc1nnc(OCc2ccccc2)n1Cc1ccc(NC(=O)c2ccccc2-c2nnn[nH]2)cc1,370
13,CCCCc1nnc(OCCc2ccccc2)n1Cc1ccc(NC(=O)c2ccccc2-c2nnn[nH]2)cc1,63
14,CCCCc1nnc(NCc2ccccc2)n1Cc1ccc(NC(=O)c2ccccc2-c2nnn[nH]2)cc1,28
15,CCCCc1nnc(NCc2ccc(Cl)cc2)n1Cc1ccc(NC(=O)c2ccccc2-c2nnn[nH]2)cc1,140
16,CCCCc1nnc(NCc2ccc(OC)cc2)n1Cc1ccc(NC(=O)c2ccccc2-c2nnn[nH]2)cc1,780
17,CCCCc1nnc(S)n1Cc1ccc(NC(=O)c2ccccc2C(=O)O)cc1,860
18,CCCSc1nnc(Cc2ccccc2)n1Cc1ccc(NC(=O)c2ccccc2C(=O)O)cc1,320
